Source: the NIST ThermoML archive (doi:10.1016/j.fluid.2010.03.027)
± gives the expanded uncertainty stated by the source.

How the values were obtained:
[1] = Liquid, Closed cell (Static) method
[2] = activity coefficient (dimensionless); of the first substance listed, at infinite dilution; xn = mol fraction of the nth substance listed; settings: 101 kPa, Liquid, dilutor technique, x1 = 0

| SMILES | activity coefficient ([2]; 288.15 K) | activity coefficient ([2]; 298.15 K) | activity coefficient ([2]; 303.15 K) | also measured |
| --- | --- | --- | --- | --- |
| CSC [2-thiapropane] |  |  |  | vapor or sublimation pressure ([1]; 293.94 K): 53.2 ± 1.2 kPa; vapor or sublimation pressure ([1]; 312.86 K): 108.8 ± 1.2 kPa |
| CSC [2-thiapropane] + C=C(C)CC(C)(C)C | 1.5 ± 0.66 | 1.45 ± 0.52 | 1.4 ± 0.44 |  |
| CSC [2-thiapropane] + C=CCCCC | 1.77 ± 0.68 | 1.71 ± 0.52 | 1.64 ± 0.46 |  |
| CSC [2-thiapropane] + CC(C)CC(C)(C)C | 1.77 ± 0.7 | 1.72 ± 0.54 | 1.67 ± 0.3 |  |
| CSC [2-thiapropane] + CCCCCC | 2.16 ± 0.9 | 1.95 ± 0.68 | 1.91 ± 0.6 | activity coefficient ([2]; 293.15 K): 2.04 ± 0.78 |
| CCC [propane] |  |  |  | vapor or sublimation pressure ([1]; 293.94 K): 852.6 ± 2.3 kPa; vapor or sublimation pressure ([1]; 293.97 K): 853.1 ± 2.3 kPa; vapor or sublimation pressure ([1]; 312.85 K): 1358.5 ± 2.8 kPa; vapor or sublimation pressure ([1]; 312.87 K): 1361.3 ± 2.8 kPa |
| C1CCSC1 [tetrahydrothiophene] |  |  |  | vapor or sublimation pressure ([1]; 293.97 K): 2.1 ± 1.2 kPa; vapor or sublimation pressure ([1]; 312.87 K): 5.9 ± 1.2 kPa |
